Read-outs that look alike come from different tables or passages of the source. Marks after values point to notes of the source that are not given here. Where a SMILES comes first, the peptide text is derived from it. Bridges are numbered along the chain shown (N, C = ends). [ ]: non-standard residue; d: D form. Aad = N[C@@H](CCCC(=O)O)C(=O)O; Dab = NCC[C@H](N)C(=O)O; Mpa = O=C(O)CCS
Assays:
[1] = Therapeutic index (NOAEL/NOEL): paleness, lethargy, ataxia observation in Sprague-Dawley rats (Example 7); assay type: in vivo
Text: As used herein, the term “therapeutic index” (TI; also referred to as therapeutic ratio) is a quantitative measure of the relative safety of a drug. […] For the purpose of the present application, lethargy is a lack of energy and/or sleepiness which is visually observed in rats as a lack of mobility, such as a lack of mobility even in the presence of human activity. For the purpose of present specification, peripheral vasoconstriction is visually observed by a paleness of the extremities (e.g., skin of hands, feet, ears, and lips). In rats, peripheral vasoconstriction is determined by a side-by-side comparison of ear paleness in treated subjects (e.g., Sprague Dawley rats, a white rat with easily visualizable changes in redness/paleness) vs. untreated control subjects. The V1a agonist (or partial agonist) with a high therapeutic index will have a better safety profile than that with a low therapeutic index by providing a wider margin of safety for dosing during the treatment of the disease. This NOAEL/NOEL ratio, being a quantitative measure of the relative safety, is a comparison of the amount of a therapeutic agent that causes the therapeutic effect (useful effect, vasoconstriction for the purpose of the present specification) to the amount that causes toxicity. A V1a agonist that causes severe vasoconstriction will affect not only the peripheral vessels, with several layer of smooth muscles, but also other vessels present in other organs (e.g., heart, lungs, kidney, brain) and this will result in observed lethargy and eventually ataxia. A partial agonist is less likely to reach such an extreme level of vasoconstriction and is believed to have a higher therapeutic index.
In this study, 8 to 10 weeks male Sprague-Dawley rats (Charles River; Wilmington, MA) under isoflurane anesthesia (n=3 or 6) were intravenously (IV) or subcutaneously (SC) injected or administered with various test articles. Prior to administration of test articles, the injection area was clipped free of fur, to allow for clear visualization of the dose site, and animal weight was measured and recorded. Animals were housed two per cage. […] Lethargy is when the animal eyes cannot fully open and is associated deep breathing and limited of movement even in the presence of human.

V1a receptor = target: T1, V1a receptor (Homo sapiens, UniProt P37288); assay: V1a Human Vasopressin GPCR Cell Based Agonist Calcium Flux Assay; details: Table 3, n = 2; for Emax: read-out: V1a Highest agonist effect (% of AVP)
T1 construct: host or cells: CHO cells
Experimental: Peptides of Formula (I) include Mpa-Tyr-Phe-Hgn-Asn-Cys-Pro-Lys(X)a-Gly-NH2 [SEQ ID NO. 24]; where (X)a is a peptide with “a” residues and each residue X is independently selected from Gly, and a D- or L-amino acid version of Ala, Lys, Orn, Glu, and Asp, where “a” is 0-10. V1a Human Vasopressin GPCR Cell Based Agonist Calcium Flux Assay were conducted at Eurofins Cerep SA (France) on a fee for service basis. Human recombinant CHO cells expressing human V1 receptors were distributed in microplates. Intracellular calcium signal was detected by fluorimetry, and the signal was acquired before and after addition of a known agonist concentration. The following agonist concentrations were tested (nM); 0.0128, 0.064, 0.32, 1.6, 8, 40, 200, and 1,000. […] All assays were performed in duplicate. Changes in fluorescence intensity reflected changes in the concentration of free cytosolic calcium. […] The half-maximal effective concentration (EC50) was determined by a non-linear regression analysis of the concentration-response curves generated with mean replicate values using Hill equation curve fitting (Cerep, I'Evescault, France).
V1a Human Vasopressin GPCR Cell Based Agonist Calcium Flux Assay were conducted using human recombinant CHO cells expressing human V1 receptor. Briefly, human recombinant CHO cells expressing human V1 receptor were distributed in microplates at 4.5×10^4 cells/well. The fluorescent probe (Fluo4 Direct, Invitrogen) mixed with probenicid in HBSS buffer (Invitrogen) complemented with 20 mM HEPES (Invitrogen) (pH 7.4) is then added into each well and equilibrated with the cells for 60 min at 37° C. then 15 min at 22° C. Thereafter, the assay plates are positioned in a microplate reader (CellLux, PerkinElmer) which is used for the addition of the test compound, reference agonist or HBSS buffer (basal control), and the measurements of changes in fluorescence intensity which varies proportionally to the free cytosolic Ca^2+ ion concentration. The following agonist concentrations were tested (nM), 0.0128, 0.064, 0.32, 1.6, 8, 40, 200, and 1,000. […] All assays were performed in duplicate. Changes in fluorescence intensity reflected changes in the concentration of free cytosolic calcium. […] Referring to FIG. 3 and Table 4, the half-maximal effective concentration (EC50) was determined by non-linear regression analysis of the concentration-response curves generated with mean replicate values using Hill equation curve fitting (Cerep, I'Evescault, France).

[2] = in vivo, sc, S.C., rat, read-out: Highest dose with no-observed adverse effect level without lethargy (NOAEL)

T1 sequence (P37288 whole entry): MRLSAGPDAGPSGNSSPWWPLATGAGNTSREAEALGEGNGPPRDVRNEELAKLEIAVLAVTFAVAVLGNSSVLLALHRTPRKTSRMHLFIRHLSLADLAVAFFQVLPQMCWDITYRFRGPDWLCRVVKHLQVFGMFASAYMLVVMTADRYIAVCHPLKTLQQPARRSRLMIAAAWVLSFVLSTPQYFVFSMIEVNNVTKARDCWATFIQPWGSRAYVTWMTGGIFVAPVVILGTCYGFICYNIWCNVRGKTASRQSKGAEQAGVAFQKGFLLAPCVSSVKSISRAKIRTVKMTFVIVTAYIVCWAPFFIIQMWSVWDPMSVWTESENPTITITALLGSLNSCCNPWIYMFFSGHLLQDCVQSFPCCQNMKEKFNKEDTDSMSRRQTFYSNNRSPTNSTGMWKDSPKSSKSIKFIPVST

Emax (V1a receptor) [%] | Structure (SMILES) | Highest dose with no-observed effect level or paleness (NOEL) ([1]; S.C., rat) [mg/kg] | Marked adverse effect (Lowest dose first showed Ataxia) ([1]; rat, in vivo, sc) [mg/kg] | Mild adverse effect (Lowest dose first showed Lethargy) ([1]; rat, in vivo, sc) [mg/kg] | NOAEL [1, 2] [mg/kg] | other results
40 | CC(=O)NCC(=O)NCC(=O)NCC(=O)NCC(=O)NCC(=O)NCC(=O)NCC(=O)NCC(=O)NCC(=O)NCCCC[C@H](NC(=O)[C@@H]1CCCN1C(=O)[C@@H]1CSSCCC(=O)N[C@@H](Cc2ccc(O)cc2)C(=O)N[C@@H](Cc2ccccc2)C(=O)N[C@@H](CCCC(N)=O)C(=O)N[C@@H](CC(N)=O)C(=O)N1)C(=O)NCC(N)=O [SEQ ID NO. 26, Mpa-Tyr-Phe-Hgn-Asn-Cys-Pro-Lys(X)a-Gly-NH2; (X)a = (Gly)9-Ac] | – | – | – | – | EC50 (V1a receptor; cells printed in μM, read-out: Estimated V1a EC50): > 10000 nM
7.5 | NC[C@H](N)C(=O)NCCCC[C@H](NC(=O)[C@@H]1CCCN1C(=O)[C@@H]1CSSCCC(=O)N[C@@H](Cc2ccc(O)cc2)C(=O)N[C@@H](Cc2ccccc2)C(=O)N[C@@H](CCCC(N)=O)C(=O)N[C@@H](CC(N)=O)C(=O)N1)C(=O)NCC(N)=O [SEQ ID NO. 29, Mpa-Tyr-Phe-Hgn-Asn-Cys-Pro-Lys(X)a-Gly-NH2; (X)a = Dap] | – | – | – | – | –
– | NCCC[C@H](NC(=O)[C@@H]1CCCN1C(=O)[C@@H]1CSSCCC(=O)N[C@@H](Cc2ccc(O)cc2)C(=O)N[C@@H](Cc2ccccc2)C(=O)N[C@@H](CCCC(N)=O)C(=O)N[C@@H](CC(N)=O)C(=O)N1)C(=O)NCC(N)=O [SEQ ID NO. 30, Mpa-Tyr-Phe-Hgn-Asn-Cys-Pro-Orn-Gly-NH2] | 0.0005 | 0.044 | 0.015 | 0.005 | –
– | NCC[C@H](NC(=O)[C@@H]1CCCN1C(=O)[C@@H]1CSSCCC(=O)N[C@@H](Cc2ccc(O)cc2)C(=O)N[C@@H](Cc2ccccc2)C(=O)N[C@@H](CCCC(N)=O)C(=O)N[C@@H](CC(N)=O)C(=O)N1)C(=O)NCC(N)=O [SEQ ID NO. 31, Mpa-Tyr-Phe-Hgn-Asn-Cys-Pro-Dab-Gly-NH2] ([Mpa]YF[Aad](NH2)NCP[Dab]G-NH2; disulfide 1-6) | 0.0005 | 0.045 | 0.015 | 0.005 | –

Structure (SMILES) | Emax (V1a receptor) [%] | Highest dose with no-observed effect level or paleness (NOEL) ([1]; S.C., rat) [mg/kg] | Marked adverse effect (Lowest dose first showed Ataxia) ([1]; rat, in vivo, sc) [mg/kg] | Mild adverse effect (Lowest dose first showed Lethargy) ([1]; rat, in vivo, sc) [mg/kg] | NOAEL [1, 2] [mg/kg] | other results
NCC(=O)NCC(=O)NCC(=O)NCC(=O)NCC(=O)NCCCC[C@H](NC(=O)[C@@H]1CCCN1C(=O)[C@@H]1CSSCCC(=O)N[C@@H](Cc2ccc(O)cc2)C(=O)N[C@@H](Cc2ccccc2)C(=O)N[C@@H](CCCC(N)=O)C(=O)N[C@@H](CC(N)=O)C(=O)N1)C(=O)NCC(N)=O [SEQ ID NO. 12, Mpa-Tyr-Phe-Hgn-Asn-Cys-Pro-Lys(X)a-Gly-NH2; (X)a = (Gly)5] | 29.6 | 0.0015 | 1.5 | 0.5 | – | Paleness (Duration, hrs; SD) ([1]; S.C., at the Marked adverse effect dose): (>6.69)* hrs; Paleness (Duration, hrs; SD) ([1]; S.C., at the Mild adverse effect dose): (>6.65)* hrs; Paleness (Duration, hrs; SD) ([1]; S.C., at the NOAEL dose): (5.79 ± 0.08) hrs; Paleness (Duration, hrs; SD) ([1]; S.C., at the NOEL dose): None Observed; NOAEL/NOEL (therapeutic index) ([1]; S.C., rat): 100; NOAEL at 24 h ([1]; male, Sprague-Dawley, in vivo, sc, S.C., rat, read-out: Highest dose with no-observed adverse effect level without lethargy (NOAEL)): 0.15 mg/kg; EC50 (V1a receptor; CHO cells expressing human V1 receptor, read-out: Estimated V1a EC50 (nM)): 50.1 nM

From US12410211B2, “V1A receptor partial agonist and method of use” (PharmaIN Corporation, priority 2020, dated 2025)
